Data reported in ChEMBL document CHEMBL1129008, “Novel 1, 2, 4-oxadiazoles as potent and selective histamine H3 receptor antagonists” (Bioorg Med Chem Lett, 1996).

target: Histamine H3 receptor (Rattus norvegicus, UniProt Q9QYN8); experiment: Binding affinity against H3 receptor in rat cerebral cortex membranes was evaluated using [3H]N-methyl-histamine as radioligand; assay type: cell membranes, Membrane; settings: not given
Sequence (Q9QYN8 whole entry): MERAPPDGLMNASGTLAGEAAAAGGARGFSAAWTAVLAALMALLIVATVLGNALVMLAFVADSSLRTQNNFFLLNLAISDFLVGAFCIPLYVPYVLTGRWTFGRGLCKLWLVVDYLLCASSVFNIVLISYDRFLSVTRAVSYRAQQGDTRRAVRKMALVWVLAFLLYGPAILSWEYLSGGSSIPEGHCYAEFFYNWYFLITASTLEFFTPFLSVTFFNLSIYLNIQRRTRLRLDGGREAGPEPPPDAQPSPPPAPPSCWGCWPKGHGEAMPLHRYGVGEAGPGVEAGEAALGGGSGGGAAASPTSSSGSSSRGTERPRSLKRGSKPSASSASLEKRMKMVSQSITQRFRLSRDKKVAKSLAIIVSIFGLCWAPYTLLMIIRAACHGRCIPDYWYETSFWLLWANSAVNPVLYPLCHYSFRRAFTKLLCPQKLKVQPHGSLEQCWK

Compound | Ki
FC(F)(F)c1ccc(Cc2noc(CCc3c[nH]cn3)n2)cc1 | 7.94 nM
Clc1ccc(Cc2n[nH]c(CCc3c[nH]cn3)n2)cc1 | 200 nM
Ic1ccc(Cc2noc(CCc3c[nH]cn3)n2)cc1 | 6.31 nM
Clc1ccc(Cc2nnc(CCc3c[nH]cn3)s2)cc1 | 100 nM
Fc1ccc(Cc2noc(CCc3c[nH]cn3)n2)cc1 | 10 nM
Clc1ccc(Cc2noc(CCCc3cnc[nH]3)n2)cc1 | 25.1 nM
c1ccc(-c2ccc(Cc3noc(CCc4c[nH]cn4)n3)cc2)cc1 | 63.1 nM
CS(=O)(=O)Nc1ccc(Cc2noc(CCc3c[nH]cn3)n2)cc1 | 1260 nM
Clc1ccc(Cc2noc(Cc3c[nH]cn3)n2)cc1 | 25.1 nM
Clc1ccc(Cc2csc(CCc3c[nH]cn3)n2)cc1 | 200 nM
C[S+]([O-])c1ccc(Cc2noc(CCc3c[nH]cn3)n2)cc1 (stereo not given) | 2510 nM
Cn1nc(CCc2c[nH]cn2)nc1Cc1ccc(Cl)cc1 | 126 nM
CS(=O)(=O)c1ccc(Cc2noc(CCc3c[nH]cn3)n2)cc1 | 316 nM
CSc1ccc(Cc2noc(CCc3c[nH]cn3)n2)cc1 | 25.1 nM
Clc1ccc(Cc2nc(CCc3c[nH]cn3)no2)cc1 | 20 nM
Clc1ccc(Cc2n[nH]c(CCCc3c[nH]cn3)n2)cc1 | 12.6 nM
Clc1ccc(CCc2noc(Cc3c[nH]cn3)n2)cc1 | 251 nM
Clc1ccc(CCc2noc(CCc3c[nH]cn3)n2)cc1 | 20 nM
COc1ccc(Cc2noc(CCc3c[nH]cn3)n2)cc1 | 39.8 nM
Clc1ccc(Cc2noc(CCc3c[nH]cn3)n2)cc1Cl | 3.16 nM

tested on: Rattus norvegicus; experiment: Compound was tested in vivo for (R)-alpha- methyl-histamine induced dipsogenicity in rats, upon subcutaneous administration; assay type: functional; settings: sc

Compound | ED50
Clc1ccc(Cc2noc(CCc3c[nH]cn3)n2)cc1 [GR-175737] | 1 mg/kg
N=C(NCc1ccc(Cl)cc1)SCCCc1c[nH]cn1 [CLOBENPROPIT] | 1.3 mg/kg
S=C(NC1CCCCC1)N1CCC(c2cnc[nH]2)CC1 [THIOPERAMIDE] | 0.8 mg/kg

tested on: Rattus norvegicus; experiment: Antagonism of ex vivo binding to rat cortex/hippocampus was determined using [3H]-N-alpha-Methylhistamine, after subcutaneous administration; assay type: functional; settings: sc

Compound | ED50
Clc1ccc(Cc2noc(CCc3c[nH]cn3)n2)cc1 [GR-175737] | 1.4 mg/kg
N=C(NCc1ccc(Cl)cc1)SCCCc1c[nH]cn1 [CLOBENPROPIT] | 10.5 mg/kg
S=C(NC1CCCCC1)N1CCC(c2cnc[nH]2)CC1 [THIOPERAMIDE] | 5.1 mg/kg

target: Histamine H2 receptor (Cavia porcellus) (UniProt P47747); experiment: Antagonistic activity at H2 receptor was assessed against histamine-induced tachycardia in guinea pig isolated atria; assay type: functional; settings: not given
Sequence (P47747 whole entry): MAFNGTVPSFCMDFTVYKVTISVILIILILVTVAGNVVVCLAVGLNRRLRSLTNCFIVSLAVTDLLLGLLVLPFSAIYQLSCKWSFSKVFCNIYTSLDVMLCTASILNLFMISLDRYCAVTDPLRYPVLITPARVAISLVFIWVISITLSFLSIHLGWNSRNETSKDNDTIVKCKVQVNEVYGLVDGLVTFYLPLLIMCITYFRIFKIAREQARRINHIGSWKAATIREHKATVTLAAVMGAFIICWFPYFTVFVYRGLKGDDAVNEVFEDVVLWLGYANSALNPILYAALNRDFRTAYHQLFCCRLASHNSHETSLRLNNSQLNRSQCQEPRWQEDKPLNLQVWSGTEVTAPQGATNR

Compound | pKB
Clc1ccc(Cc2nnc(CCc3c[nH]cn3)s2)cc1 | 5.8
N=C(NCc1ccc(Cl)cc1)SCCCc1c[nH]cn1 [CLOBENPROPIT] | < 6
Clc1ccc(Cc2noc(CCCc3c[nH]cn3)n2)cc1 | < 5
S=C(NC1CCCCC1)N1CCC(c2cnc[nH]2)CC1 [THIOPERAMIDE] | < 5
Clc1ccc(Cc2nc(CCc3c[nH]cn3)no2)cc1 | 5.6
Clc1ccc(Cc2n[nH]c(CCCc3c[nH]cn3)n2)cc1 | < 5
Clc1ccc(CCc2noc(CCc3c[nH]cn3)n2)cc1 | < 5

tested on: Rattus norvegicus; experiment: Antagonism of ex vivo binding to rat cortex/hippocampus was determined using [3H]-N-alpha-Methylhistamine, after peroral administration; assay type: functional; settings: po

Compound | ED50
Clc1ccc(Cc2noc(CCc3c[nH]cn3)n2)cc1 [GR-175737] | 1.2 mg/kg
N=C(NCc1ccc(Cl)cc1)SCCCc1c[nH]cn1 [CLOBENPROPIT] | > 30 mg/kg
S=C(NC1CCCCC1)N1CCC(c2cnc[nH]2)CC1 [THIOPERAMIDE] | 6 mg/kg

tested on: Rattus norvegicus; experiment: Compound was tested in vivo for (R)-alpha- methyl-histamine induced dipsogenicity in rats, upon peroral administration; assay type: functional; settings: po

Compound | ED50
N=C(NCc1ccc(Cl)cc1)SCCCc1c[nH]cn1 [CLOBENPROPIT] | 2.4 mg/kg
S=C(NC1CCCCC1)N1CCC(c2cnc[nH]2)CC1 [THIOPERAMIDE] | 0.8 mg/kg

target: Histamine H1 receptor (Cavia porcellus) (UniProt P31389); experiment: Antagonistic activity against H1 receptor was determined in histamine induced contractions of guinea pig isolated whole ileum; assay type: functional, tissue-based; settings: not given
Sequence (P31389 whole entry): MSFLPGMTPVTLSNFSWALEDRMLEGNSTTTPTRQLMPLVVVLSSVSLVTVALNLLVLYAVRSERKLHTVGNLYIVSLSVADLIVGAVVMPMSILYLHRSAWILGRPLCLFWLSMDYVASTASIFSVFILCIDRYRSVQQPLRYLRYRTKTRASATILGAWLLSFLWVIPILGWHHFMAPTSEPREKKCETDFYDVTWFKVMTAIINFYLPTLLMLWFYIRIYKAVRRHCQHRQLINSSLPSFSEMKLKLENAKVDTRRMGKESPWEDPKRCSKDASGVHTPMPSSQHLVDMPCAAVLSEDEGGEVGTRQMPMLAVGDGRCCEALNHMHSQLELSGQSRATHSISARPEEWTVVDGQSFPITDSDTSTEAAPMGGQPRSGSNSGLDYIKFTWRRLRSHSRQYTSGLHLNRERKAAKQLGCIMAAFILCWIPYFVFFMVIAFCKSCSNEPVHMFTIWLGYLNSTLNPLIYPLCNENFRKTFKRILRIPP

Compound | pKB
N=C(NCc1ccc(Cl)cc1)SCCCc1c[nH]cn1 [CLOBENPROPIT] | < 6
Clc1ccc(Cc2noc(CCCc3c[nH]cn3)n2)cc1 | < 5
S=C(NC1CCCCC1)N1CCC(c2cnc[nH]2)CC1 [THIOPERAMIDE] | < 5
Clc1ccc(Cc2n[nH]c(CCCc3c[nH]cn3)n2)cc1 | < 5
Clc1ccc(CCc2noc(CCc3c[nH]cn3)n2)cc1 | < 5

target: Histamine H3 receptor (Cavia porcellus) (UniProt Q9JI35); experiment: Antagonistic activity at H3 receptor was assessed on guinea-pig longitudinal muscle strips subjected to electrical field stimulation; assay type: functional; settings: not given
Sequence (Q9JI35 whole entry): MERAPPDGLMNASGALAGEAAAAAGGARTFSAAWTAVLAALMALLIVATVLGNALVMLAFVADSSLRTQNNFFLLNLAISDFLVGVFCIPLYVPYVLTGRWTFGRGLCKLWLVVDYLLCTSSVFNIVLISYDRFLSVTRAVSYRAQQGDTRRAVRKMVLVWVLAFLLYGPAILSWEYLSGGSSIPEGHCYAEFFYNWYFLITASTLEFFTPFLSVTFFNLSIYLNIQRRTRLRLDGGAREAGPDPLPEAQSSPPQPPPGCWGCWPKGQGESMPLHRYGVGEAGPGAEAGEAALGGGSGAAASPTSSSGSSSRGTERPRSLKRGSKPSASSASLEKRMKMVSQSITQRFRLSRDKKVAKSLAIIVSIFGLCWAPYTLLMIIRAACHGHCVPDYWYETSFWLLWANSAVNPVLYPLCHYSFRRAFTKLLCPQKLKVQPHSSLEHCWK

Compound | pKB
FC(F)(F)c1ccc(Cc2noc(CCc3c[nH]cn3)n2)cc1 | 8.3
Clc1ccc(Cc2n[nH]c(CCc3c[nH]cn3)n2)cc1 | 5.7
Ic1ccc(Cc2noc(CCc3c[nH]cn3)n2)cc1 | 7.1
Clc1ccc(Cc2nnc(CCc3c[nH]cn3)s2)cc1 | 7
Fc1ccc(Cc2noc(CCc3c[nH]cn3)n2)cc1 | 8.4
c1ccc(-c2ccc(Cc3noc(CCc4c[nH]cn4)n3)cc2)cc1 | 6.6
N=C(NCc1ccc(Cl)cc1)SCCCc1c[nH]cn1 [CLOBENPROPIT] | 9.9
Clc1ccc(Cc2noc(Cc3c[nH]cn3)n2)cc1 | 7.2
Clc1ccc(Cc2csc(CCc3c[nH]cn3)n2)cc1 | 7.3
Clc1ccc(Cc2noc(CCCc3c[nH]cn3)n2)cc1 | 6.8
Cn1nc(CCc2c[nH]cn2)nc1Cc1ccc(Cl)cc1 | 5.8
S=C(NC1CCCCC1)N1CCC(c2cnc[nH]2)CC1 [THIOPERAMIDE] | 8.3
Clc1ccc(Cc2nc(CCc3c[nH]cn3)no2)cc1 | 7
Clc1ccc(Cc2n[nH]c(CCCc3c[nH]cn3)n2)cc1 | 7.4
Clc1ccc(CCc2noc(CCc3c[nH]cn3)n2)cc1 | 7.7
COc1ccc(Cc2noc(CCc3c[nH]cn3)n2)cc1 | 6.5
Clc1ccc(Cc2noc(CCc3c[nH]cn3)n2)cc1Cl | 8
